Source: patent publication US20260258420A1, “COMPOSITIONS AND METHODS FOR THE TREATMENT OF HUMAN PAPILLOMAVIRUS-DRIVEN CANCERS” (priority 2023, published 2026)

How the values were obtained:
Type in all cases: cell-based
[1] = tested on: 17 HPV-negative HNSCC and cervical squamous cancer cell lines; test: High-throughput drug screen (HTDS), cell death by AOC_LD, HPV-negative cell lines
Description: (§1) The concordance correlation coefficient was computed to assess the reproducibility of the normalized growth rates of the 2 replicates. […] A chi-square test was applied to compare drug classification and the cluster membership. The Fisher exact test was applied to compare mutations status (wild-type and mutant) and drugs' response data (sensitive and resistant).
(§2) The effects of 864 unique drugs from 51 classes was tested in 16 HPV-positive and 17 HPV-negative HNSCC and cervical squamous cancer cell lines (Table 2) that were characterized previously (Kaiu, et al., Oncotarget 2017; 8(49):86369-83).

[2] = tested on: 16 HPV-positive and 17 HPV-negative HNSCC and cervical squamous cancer cell lines; test: High-throughput drug screen (HTDS), whole panel, comparison by HPV status; conditions: AOC_LD as a dichotomous variable
Description: as §1, §2

[3] = tested on: HN31 cells stably transfected with an E7 plasmid; test: Apoptosis in HPV-negative cells overexpressing E7; conditions: 300 nmol/L, 24 hours
Description: (§3) Each data point represents 1 cell line. Box plots show the median pRb […] levels and 95% confidence intervals across all cell lines in the category. t-test P=0.0097. FIG. 4B, HPV-negative HNSCC cells (HN31, UMSCC4, and MDA886LN) were infected with distinct, lentivirus-based shRNAs (Sh2, Sh4, and Sh6) to stably knock down the expression of RB1 or were treated with control (Ctrl) shRNA. Cells were then treated with 300 nmol/L alisertib for 24 hours before annexin V-PE/7AAD staining and analysis with flow cytometry. The bar graph represents the ratio of apoptosis (late plus early) among different groups. Values are the means±the standard deviations for 3 independent experiments. *P<0.05; **P<0.005; unpaired, 2-tailed Student t-test. FIG. 4C, cells from FIG. 4B were treated with 300 nmol/L alisertib for 24 hours before lysis and immunoblotting with the indicated antibodies. FIG. 4D-E, HN31 cells were stably transfected with an E7 plasmid and treated with 300 nmol/L alisertib for 24 hours before lysis and immunoblotting with (FIG. 4D) the indicated antibodies or (FIG. 4E) annexin-PE staining to measure apoptosis. Values are the means±the standard deviations for 3 independent experiments. ** P≤0.01; *** P≤0.001. FIG. 4F, two HPV-positive cell lines were transfected with 10 nmol/L siRNA oligonucleotides specific to E7 or with control oligonucleotides. […]

HPV-negative cell lines = test: Rb family protein and cleaved caspase-3 levels in HPV-negative cells
Text: The effect of RB1 silencing on the expression of other RB family members (RBL1, RBL2) was also examined. It was observed that the levels of RBL1 remained unchanged with the treatment. However, the protein levels of RBL2 decreased with RB1 silencing as well as with alisertib treatment. The effect of RB1 silencing on RBL2 was likely due to pooled siRNAs. Using RB1 shRNA, an effect of RB1 depletion on RBL2 was not observed, but the enhanced alisertib-induced apoptosis was observed, supporting a role for RB1 alone in this effect.
A decrease of Rb protein expression following Aurora kinase inhibition was noted, that may be related to G2/M cell cycle arrest. Alternatively, it may be that the HPV negative cells with low Rb expression are the ones that survive after Aurora inhibition. To test this at the single cell level, two HPV-negative cell lines were co-stained with anti-Rb labelled with FITC conjugate and anti-cleaved caspase-3 labelled with TRITC and treated with alisertib or vehicle control. As expected in these unsynchronized cells, Rb expression was detectable, but modestly heterogeneous in control cells. […] Consistent with prior data, cells with higher Rb levels have no or very low levels of cleaved caspase-3. Cells with lower Rb levels have modest levels of cleaved caspase-3.

[4] = tested on: two HPV-positive cell lines transfected with E7 siRNA; test: Apoptosis immunoblot in HPV-positive cells with E7 siRNA; conditions: 300 nmol/L, 24 hours
Description: as §3

[5] = tested on: 2 HPV-positive cell lines transfected with MAD2L1 plasmid; test: Apoptosis with Mad2 overexpression; conditions: 100 nmol/L, 24 hours
Description: FIG. 6A, mRNA expressions of MAD2L1, BUBIB and TRIP13 in HNSCC HPV-positive (n=70) and HPV-negative (n=447) HNSCC patient tumors from the TCGA (left panel) and in HPV-positive (n=51) and HPV-negative OPSCC [(n=28), right panel]. FIG. 6B, FIG. 6C, TRIP13 was depleted by siRNA in HPV-positive and negative cell lines. Cells were then treated with 100 nmol/L alisertib for 36 hours before being subjected to lysis and immunoblotting with the indicated antibodies (FIG. 6B) or annexin-PE staining to measure apoptosis using flow cytometry (FIG. 6C). FIG. 6D, FIG. 6E, the MAD2L1 plasmid was transiently transfected into 2 HPV-positive cell lines that were then treated with 100 nmol/L alisertib for 24 hours before being subjected to lysis and immunoblotting for the indicated proteins (FIG. 6D) or annexin-PE staining to measure apoptosis (FIG. 6E). Values are the means±the standard deviations for 3 independent experiments (** P≤0.01). Cl, cleaved; Fl, full length; GAPDH, glyceraldehyde 3-phosphate dehydrogenase; Ox, overexpression. FIG. 6F, model of the synthetic lethality between TRIP13 and Aurora kinase A. HPV-positive, Rb deficient cancer cells rely on both TRIP13 and Aurora kinase activity to maintain mitotic fidelity, such that their combined inhibition will lead to a prolonged spindle assembly checkpoint (SAC), irreversible mitotic arrest, and cancer cell death. […]

[6] = two HPV-negative cell lines, vs control cells

SMILES: COc1cc(Nc2ncc3c(n2)-c2ccc(Cl)cc2C(c2c(F)cccc2OC)=NC3)ccc1C(=O)O [ALISERTIB, alisertib]
- HPV negative Resistant (number of cell lines) ([1]; resistant = AOC_LD 0): 16
- HPV negative Sensitive (number of cell lines) ([1]; sensitive = AOC_LD greater than 0): 1
- efficacy in HPV-positive vs HPV-negative cell lines [2]: tended to be more effective in HPV-positive cell lines
- apoptosis (cleaved caspase-3, PARP, annexin V) [3]: selectively enhanced apoptosis
- protein levels of RBL2 (HPV-negative cell lines): decreased
- Rb expression (single cell staining) (HPV-negative cell lines; [6]): notably lower
- cleaved caspase 3 (single cell staining) (HPV-negative cell lines; [6]): slightly higher
- apoptosis with and without E7 knockdown (increased Rb expression) [4]: caused apoptosis in the HPV-positive cell lines but not in the same cells with increased Rb expression
- apoptosis with Mad2 overexpression [5]: enhanced apoptosis
